According to paper PMC12587545, “Noncytotoxic polymyxin derivatives enhance antibiotic action against multidrug-resistant Gram-negative bacteria” (Antimicrobial Agents and Chemotherapy, 2025):
Several values for one entry are separate records, joined by “and”; a condition that tells them apart may be missing. Equal values may be shown once.

Columns and labels:
P. aeruginosa = test: Checkerboard assay (antibiotic potentiation); format: cell-based, Pseudomonas aeruginosa; conditions: for MICantibiotic: antibiotic alone
Experimental: (§1) The interaction between the compounds and the antibiotics was evaluated using the fractional inhibitory concentration (FIC) index. FIC indices of ≤0.5 is synergistic, 0.5 < × ≤ 4 is additive, whereas >4 is antagonistic ([34]).
(§2) Synergy was measured by the FIC index, which is the summation of the individual FICs of the antibiotic and the compound. The FIC is calculated by dividing the MIC of one agent in the presence of another by the MIC of the agent alone. […] The FBS studies were conducted by following a previously published protocol ([29], [50]). The FBS was inactivated by heating at 56°C for 30 min with constant swirling.

A. baumannii = test: Checkerboard assay (antibiotic potentiation); format: cell-based, Acinetobacter baumannii; set-up: key to FIC index: sum of FICs; ≤0.5 synergistic, 0.5–4 additive, >4 antagonistic; conditions: for MICantibiotic: antibiotic alone
Experimental: (§3) The interaction between the compounds and the antibiotics was evaluated using the fractional inhibitory concentration (FIC) index. FIC indices of ≤0.5 is synergistic, 0.5 < × ≤ 4 is additive, whereas >4 is antagonistic ([34]). […] .
(§4) The bacterial isolates were acquired from ATCC or the Canadian Ward Surveillance (CANWARD) study ([56]). CANWARD isolates were collected from infected patients admitted to participating medical centers across Canada.
(§5) The antibiotic and compounds were serially diluted 2-fold in CAMHB along the x- and y-axis, respectively, on a 96-well plate that was subsequently incubated with equal volumes of bacterial inoculum overnight at 37°C. Wells containing only media were used as negative controls, and wells containing only bacteria were used as positive controls. Synergy was measured by the FIC index, which is the summation of the individual FICs of the antibiotic and the compound. The FIC is calculated by dividing the MIC of one agent in the presence of another by the MIC of the agent alone. Turbidity was confirmed with a Molecular Devices (United States) EMax Plus microplate reader at a wavelength of 590 nm. The FBS studies were conducted by following a previously published protocol ([29], [50]). The FBS was inactivated by heating at 56°C for 30 min with constant swirling.

E. coli = test: Checkerboard assay (antibiotic potentiation); format: cell-based, Escherichia coli; conditions: for MICantibiotic + compound: antibiotic MIC with 8 µg/mL (5 µM) compound 1; for MICantibiotic: antibiotic alone; for Potentiation: of antibiotic by 8 µg/mL (5 µM) compound 1
Experimental: as §1, §2

K. pneumoniae = test: Checkerboard assay (antibiotic potentiation); format: cell-based, Klebsiella pneumoniae; conditions: for Interpretation: antibiotic + compound 1; for MICantibiotic + compound: antibiotic MIC with 8 µg/mL (5 µM) compound 1; for MICantibiotic: antibiotic alone; for Potentiation: of antibiotic by 8 µg/mL (5 µM) compound 1
Experimental: as §1, §2

E. cloacae = test: Checkerboard assay (antibiotic potentiation); format: cell-based, Enterobacter cloacae; conditions: E. cloacae 121887 (colistin-resistant)
Experimental: as §3, §4, §5

[1] = system: MDR Gram-negative bacteria clinical isolates; test: Checkerboard assay, summary over strains; format: cell-based; conditions: of all 14 clinical isolates; number (%)
Experimental: as §1, §5

[2] = P. aeruginosa 262-101856, antibiotic + compound 1
[3] = A. baumannii 110193, antibiotic + compound 1
[4] = A. baumannii ATCC 17978, antibiotic + compound 1
[5] = E. coli 94393 (colistin-resistant)
[6] = E. coli 94474 (colistin-resistant)
[7] = K. pneumoniae 113250 (colistin-resistant)

**Q.** Which results are given for `C[C@H]1COc2c(N3CCN(C)CC3)c(F)cc3c(=O)c(C(=O)O)cn1c23` [Levofloxacin]?
**A.** Interpretation (P. aeruginosa; P. aeruginosa 259-96916, antibiotic + compound 1): Synergy (FIC indices of ≤0.5 is synergistic); MICantibiotic + compound (P. aeruginosa; P. aeruginosa 259-96916, antibiotic MIC with 8 µg/mL (5 µM) compound 1): 16 µg/mL; MICantibiotic (P. aeruginosa; P. aeruginosa 259-96916): 512 µg/mL; Potentiation (P. aeruginosa; P. aeruginosa 259-96916, of antibiotic by 8 µg/mL (5 µM) compound 1): 32 fold; FIC index (P. aeruginosa; [2]): x < 0.125; Interpretation (P. aeruginosa; [2]): Synergy (FIC indices of ≤0.5 is synergistic); MICantibiotic + compound (P. aeruginosa; P. aeruginosa 262-101856, antibiotic MIC with 8 µg/mL (5 µM) compound 1): 4 µg/mL; MICantibiotic (P. aeruginosa; P. aeruginosa 262-101856): >64 µg/mL; Potentiation (P. aeruginosa; P. aeruginosa 262-101856, of antibiotic by 8 µg/mL (5 µM) compound 1): ≥32-fold; Interpretation (P. aeruginosa; P. aeruginosa 264-105354, antibiotic + compound 1): Synergy (FIC indices of ≤0.5 is synergistic); MICantibiotic + compound (P. aeruginosa; P. aeruginosa 264-105354, antibiotic MIC with 8 µg/mL (5 µM) compound 1): 4 µg/mL; MICantibiotic (P. aeruginosa; P. aeruginosa 264-105354): 64 µg/mL; Potentiation (P. aeruginosa; P. aeruginosa 264-105354, of antibiotic by 8 µg/mL (5 µM) compound 1): 16 fold; Interpretation (P. aeruginosa; P. aeruginosa 101243 (colistin-resistant), antibiotic + compound 1): Synergy (FIC indices of ≤0.5 is synergistic); MICantibiotic + compound (P. aeruginosa; P. aeruginosa 101243 (colistin-resistant), antibiotic MIC with 8 µg/mL (5 µM) compound 1): 16 µg/mL; MICantibiotic (P. aeruginosa; P. aeruginosa 101243 (colistin-resistant)): 128 µg/mL; Potentiation (P. aeruginosa; P. aeruginosa 101243 (colistin-resistant), of antibiotic by 8 µg/mL (5 µM) compound 1): 8 fold; Interpretation (P. aeruginosa; P. aeruginosa 114228 (colistin-resistant), antibiotic + compound 1): Additive (0.5 < × ≤ 4 is additive); MICantibiotic + compound (P. aeruginosa; P. aeruginosa 114228 (colistin-resistant), antibiotic MIC with 8 µg/mL (5 µM) compound 1): 2 µg/mL; MICantibiotic (P. aeruginosa; P. aeruginosa 114228 (colistin-resistant)): 2 µg/mL; Potentiation (P. aeruginosa; P. aeruginosa 114228 (colistin-resistant), of antibiotic by 8 µg/mL (5 µM) compound 1): 1 fold; Interpretation (P. aeruginosa; P. aeruginosa PAO1, antibiotic + compound 1): Synergy (FIC indices of ≤0.5 is synergistic); Interpretation (P. aeruginosa; P. aeruginosa PAO1, antibiotic + compound 3): Additive (0.5 < × ≤ 4 is additive); MICantibiotic + compound (P. aeruginosa; P. aeruginosa PAO1, antibiotic MIC with 8 µg/mL (5 µM) compound 1): 0.125 µg/mL; MICantibiotic + compound (P. aeruginosa; P. aeruginosa PAO1, antibiotic MIC with 8 µg/mL (5 µM) compound 3): 1 µg/mL; MICantibiotic (P. aeruginosa; P. aeruginosa PAO1): 1 µg/mL and 0.5 µg/mL; Potentiation (P. aeruginosa; P. aeruginosa PAO1, of antibiotic by 8 µg/mL (5 µM) compound 1): 4 fold; Potentiation (P. aeruginosa; P. aeruginosa PAO1, of antibiotic by 8 µg/mL (5 µM) compound 3): 1 fold; Interpretation (A. baumannii; A. baumannii 92247 (colistin-resistant), antibiotic + compound 1): Additive (0.5 < × ≤ 4 is additive); MICantibiotic + compound (A. baumannii; A. baumannii 92247 (colistin-resistant), antibiotic MIC with 4 µg/mL (2 µM) compound 1): 0.063 µg/mL; MICantibiotic (A. baumannii; A. baumannii 92247 (colistin-resistant)): 0.063 µg/mL; Potentiation (A. baumannii; A. baumannii 92247 (colistin-resistant), of antibiotic by 4 µg/mL (2 µM) compound 1): 1 fold; FIC index (A. baumannii; [3]): 1.125; Interpretation (A. baumannii; [3]): Additive (0.5 < × ≤ 4 is additive); MICantibiotic + compound (A. baumannii; A. baumannii 110193, antibiotic MIC with 4 µg/mL (2 µM) compound 1): 0.25 µg/mL; MICantibiotic (A. baumannii; A. baumannii 110193): 0.25 µg/mL; Potentiation (A. baumannii; A. baumannii 110193, of antibiotic by 4 µg/mL (2 µM) compound 1): 1 fold; Interpretation (A. baumannii; A. baumannii AB027, antibiotic + compound 1): Additive (0.5 < × ≤ 4 is additive); MICantibiotic + compound (A. baumannii; A. baumannii AB027, antibiotic MIC with 4 µg/mL (2 µM) compound 1): 4 µg/mL; MICantibiotic (A. baumannii; A. baumannii AB027): 8 µg/mL; Potentiation (A. baumannii; A. baumannii AB027, of antibiotic by 4 µg/mL (2 µM) compound 1): 2 fold; Interpretation (A. baumannii; A. baumannii AB031, antibiotic + compound 1): Additive (0.5 < × ≤ 4 is additive); MICantibiotic + compound (A. baumannii; A. baumannii AB031, antibiotic MIC with 4 µg/mL (2 µM) compound 1): 0.125 µg/mL; MICantibiotic (A. baumannii; A. baumannii AB031): 0.25 µg/mL; Potentiation (A. baumannii; A. baumannii AB031, of antibiotic by 4 µg/mL (2 µM) compound 1): 2 fold; FIC index (A. baumannii; [4]): 0.650; Interpretation (A. baumannii; [4]): Additive (0.5 < × ≤ 4 is additive); Interpretation (A. baumannii; A. baumannii ATCC 17978, antibiotic + compound 3): Additive (0.5 < × ≤ 4 is additive); MICantibiotic + compound (A. baumannii; A. baumannii ATCC 17978, antibiotic MIC with 8 µg/mL (5 µM) compound 3): 0.125 µg/mL; MICantibiotic + compound (A. baumannii; A. baumannii ATCC 17978, antibiotic MIC with ¼ MIC (≤5 µM) of compound 1): 0.063 µg/mL; MICantibiotic (A. baumannii; A. baumannii ATCC 17978): 0.125 µg/mL; Potentiation (A. baumannii; A. baumannii ATCC 17978, of antibiotic by 8 µg/mL (5 µM) compound 3): 1 fold; Potentiation (A. baumannii; A. baumannii ATCC 17978, of antibiotic by ¼ MIC (≤5 µM) of compound 1): 2 fold; FIC index (E. coli; E. coli 94393 (colistin-resistant), antibiotic + compound 1): x < 0.563; MICantibiotic + compound (E. coli; [5]): 1 µg/mL; MICantibiotic (E. coli; [5]): >2 µg/mL; Potentiation (E. coli; [5]): ≥4-fold; Interpretation (E. coli; E. coli 94474 (colistin-resistant), antibiotic + compound 1): Additive (0.5 < × ≤ 4 is additive); MICantibiotic + compound (E. coli; [6]): 8 µg/mL; MICantibiotic (E. coli; [6]): 16 µg/mL; Potentiation (E. coli; [6]): 2 fold; Interpretation (K. pneumoniae; [7]): Additive (0.5 < × ≤ 4 is additive); MICantibiotic + compound (K. pneumoniae; [7]): 0.063 µg/mL; MICantibiotic (K. pneumoniae; [7]): 0.063 µg/mL; Potentiation (K. pneumoniae; [7]): 1 fold; Interpretation (K. pneumoniae; K. pneumoniae 116381): Synergy (FIC indices of ≤0.5 is synergistic); MICantibiotic + compound (K. pneumoniae; K. pneumoniae 116381): 4 µg/mL; MICantibiotic (K. pneumoniae; K. pneumoniae 116381): 256 µg/mL; Potentiation (K. pneumoniae; K. pneumoniae 116381): 64 fold; Interpretation (E. cloacae; antibiotic + compound 1): Additive (0.5 < × ≤ 4 is additive); MICantibiotic + compound (E. cloacae; antibiotic MIC with 8 µg/mL (5 µM) compound 1): 16 µg/mL; MICantibiotic (E. cloacae; antibiotic alone): 16 µg/mL; Potentiation (E. cloacae; of antibiotic by 8 µg/mL (5 µM) compound 1): 1 fold; clinical isolates in which the antibiotic was synergized by compound 1 [1]: 5 (36%) strains
